In patent US8710224B2, “Heterocyclic compounds as CCR2B antagonists” (AstraZeneca AB, priority 2004, dated 2014):

Target: T1, recombinant human CCR5 receptor (Homo sapiens, UniProt P51681)
T1 construct: expressed in transfected cells; host or cells: Chinese hamster ovary (CHO) cells; membranes
Test: Radioligand binding assay for inhibition of the binding of MIP-1α
Conditions: displacement of 0.1 nM iodinated MIP-1α; membranes of Chinese hamster ovary cells expressing CCR5
Procedure: Biological Assay for the Ability of Compounds to Inhibit the Binding of MIP-1α This ability is assessed using an in vitro radioligand binding assay. Membranes are prepared from Chinese hamster ovary cells which express the recombinant human CCR5 receptor. These membranes are incubated with 0.1 nM iodinated MIP-1α, scintillation proximity beads and various concentrations of the compounds of the invention in 96-well plates. The amount of iodinated MIP-1α bound to the receptor is then determined by scintillation counting.

T1 sequence (P51681 whole entry): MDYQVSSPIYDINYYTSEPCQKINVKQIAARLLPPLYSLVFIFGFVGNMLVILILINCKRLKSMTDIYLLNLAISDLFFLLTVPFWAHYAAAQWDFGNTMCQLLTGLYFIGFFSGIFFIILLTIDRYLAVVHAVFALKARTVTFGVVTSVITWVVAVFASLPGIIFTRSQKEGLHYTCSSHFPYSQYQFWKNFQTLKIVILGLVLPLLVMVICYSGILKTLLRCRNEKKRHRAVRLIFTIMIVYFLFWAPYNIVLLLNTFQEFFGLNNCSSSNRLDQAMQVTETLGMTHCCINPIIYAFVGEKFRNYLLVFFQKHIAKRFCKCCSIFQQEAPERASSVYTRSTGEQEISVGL

Compound	IC50
CC(C)N1CCN[C@@H](C(=O)N2CCN(C(=O)Nc3ccc(Cl)c(Cl)c3)CC2)C1 [Example 134, N-(3,4-dichlorophenyl)-4-{[(2R)-4-isopropylpiperazin-2-yl]carbonyl}piperazine-1-carboxamide]	< 10 µM
COc1ccc(CN2CCC[C@@H](CN3CCN(C(=O)Nc4ccccc4)CC3)C2)cn1 [Example 247, 4-({(3R)-1-[(6-methoxypyridin-3-yl)methyl]piperidin-3-yl}methyl)-N-phenyl piperazine-1-carboxamide]	< 10 µM
CC(C)N1CCN[C@@H](C(=O)N2CCN(C(=O)Nc3ccc(Cl)cc3)CC2)C1 [Example 215, N-(4-chlorophenyl)-4-{[(2R)-4-isopropylpiperazin-2-yl]carbonyl}piperazine-1-carboxamide]	< 10 µM
Cc1ccc(NC(=O)N2CCN(C(=O)[C@H]3CN(C(C)C)CCN3)CC2)cc1F [Example 218, N-(3-fluoro-4-methylphenyl)-4-{[(2R)-4-isopropylpiperazin-2-yl]carbonyl}piperazine-1-carboxamide]	< 10 µM
O=C(Nc1ccc(Cl)c(Cl)c1)N1CCN(C(=O)[C@H]2CN(C3CCCCC3)CCN2)CC1 [Example 277, 4-{[(2R)-4-Cyclohexylpiperazin-2-yl]carbonyl}-N-(3,4-dichlorophenyl)piperazine-1-carboxamide]	< 10 µM
CN1CCN[C@@H](C(=O)N2CCN(C(=O)Nc3ccc(Cl)c(Cl)c3)CC2)C1 [Example 210, N-(3,4-Dichlorophenyl)-4-{[(2R)-4-methylpiperazin-2-yl]carbonyl}piperazine-1-carboxamide]	< 10 µM
CCN1CCN[C@@H](C(=O)N2CCN(C(=O)Nc3cccc(Cl)c3)CC2)C1 [Example 132, N-(3-Chlorophenyl)-4-{[(2R)-4-ethylpiperazin-2-yl]carbonyl}piperazine-1-carboxamide]	< 10 µM
COCCOc1ccc(CN2CCC[C@@H](CN3CCN(C(=O)Nc4ccc(Cl)c(Cl)c4)CC3)C2)cn1 [Example 258, N-(3,4-dichlorophenyl)-4-[((3R)-1-{[6-(2-methoxyethoxy)pyridin-3-yl]methyl}piperidin-3-yl)methyl]piperazine-1-carboxamide]	< 10 µM
CC(C1CC1)N1CCN[C@@H](C(=O)N2CCN(C(=O)Nc3ccc(Cl)c(Cl)c3)CC2)C1 (stereo partly drawn) [Example 281, 4-{[(2R)-4-(1-Cyclopropylethyl)piperazin-2-yl]carbonyl}-N-(3,4-dichlorophenyl)piperazine-1-carboxamide]	< 10 µM
CC(C)N1CCN[C@@H](C(=O)N2CCN(C(=O)Nc3ccc(Cl)c(C(F)(F)F)c3)CC2)C1 [Example 213, N-[4-chloro-3-(trifluoromethyl)phenyl]-4-{[(2R)-4-isopropylpiperazin-2-yl]carbonyl}piperazine-1-carboxamide]	< 10 µM
O=C(Nc1ccc(Cl)c(Cl)c1)N1CCN(C(=O)[C@H]2CN(C3CCC(O)(c4ccccn4)CC3)CCN2)CC1 (stereo partly drawn) [Example 279, N-(3,4-Dichlorophenyl)-4-{[(2R)-4-(4-hydroxy-4-pyridin-2-ylcyclohexyl)piperazin-2-yl]carbonyl}piperazine-1-carboxamide]	< 10 µM
O=C1CN(C(=O)Nc2ccc(Cl)c(Cl)c2)CCN1CC1CCCN(Cc2ccccc2)C1 (centres unmarked) [Example 42, 4-[(1-benzylpiperidin-3-yl)methyl]-N-(3,4-dichlorophenyl)-3-oxopiperazine-1-carboxamide]	< 10 µM
CC(C)N1CCN[C@@H](C(=O)N2CCN(C(=O)Nc3cc(Cl)cc(Cl)c3)CC2)C1 [Example 287, N-(3,5-Dichlorophenyl)-4-{[(2R)-4-isopropylpiperazin-2-yl]carbonyl}piperazine-1-carboxamide]	< 10 µM
O=C(Nc1ccc(Cl)c(Cl)c1)N1CCN(C[C@@H]2CCCN(Cc3c[nH]nc3-c3cccs3)C2)CC1 [Example 199, N-(3,4-Dichlorophenyl)-4-[((3R)-1-{[3-(2-thienyl)-1H-pyrazol-4-yl]methyl}piperidin-3-yl)methyl]piperazine-1-carboxamide]	< 10 µM
O=C(Nc1ccc(Cl)c(Cl)c1)N1CCN(C[C@@H]2CCCN(Cc3c[nH]nc3-c3ccccc3)C2)CC1 [Example 200, N-(3,4-Dichlorophenyl)-4-({(3R)-1-[(3-phenyl-1H-pyrazol-4-yl)methyl]piperidin-3-yl}methyl)piperazine-1-carboxamide]	< 10 µM
CC(C)N1CCN[C@@H](C(=O)N2CCN(C(=O)Nc3cc(F)cc(C(F)(F)F)c3)CC2)C1 [Example 288, N-[3-Fluoro-5-(trifluoromethyl)phenyl]-4-{[(2R)-4-isopropylpiperazin-2-yl]carbonyl}piperazine-1-carboxamide]	< 10 µM
CC(C)N1CCN[C@@H](C(=O)N2CCN(C(=O)Nc3ccc(F)c(Cl)c3)CC2)C1 [Example 216]	< 10 µM
CS(=O)(=O)c1ccc(CCCN2CCC[C@@H](CN3CCN(C(=O)Nc4cccc(Cl)c4)CC3)C2)cc1 [Example 327, N-(3-Chlorophenyl)-4-[((3R)-1-{3-[4-(methylsulfonyl)phenyl]propyl}piperidin-3-yl)methyl]piperazine-1-carboxamide]	< 10 µM

Continued, values first:

IC50	Compound
< 10 µM	CN1CCCC(CN2CCN(C(=O)Nc3cc(Cl)cc(Cl)c3)CC2)C1 (centres unmarked) [Example 41, N-(3,5-dichlorophenyl)-4-[(1-methylpiperidin-3-yl)methyl]piperazine-1-carboxamide]
< 10 µM	O=C(Nc1ccc(Cl)c(C(F)(F)F)c1)N1CCN(C[C@@H]2CCCN(C3CC3)C2)CC1 [Example 186, N-[4-chloro-3-(trifluoromethyl)phenyl]-4-{[(3S)-1-cyclopropylpiperidin-3-yl]methyl}piperazine-1-carboxamide]
< 10 µM	CC(C)N1CCC[C@@H](CN2CCN(C(=O)Nc3ccc(Cl)c(Cl)c3)CC2)C1 [Example 84, N-(3,4-dichlorophenyl)-4-{[(3S)-1-isopropylpiperidin-3-yl]methyl}piperazine-1-carboxamide]
< 10 µM	O=C(Nc1ccccc1)N1CCN(C[C@@H]2CCCN(CCc3ccc(F)cc3)C2)CC1 [Example 248, 4-[[(3R)-1-[2-(4-fluorophenyl)ethyl]-3-piperidyl]methyl]-N-phenyl-piperazine-1-carboxamide]
< 10 µM	CC(C)(C)c1cc(NC(=O)N2CCN(C[C@@H]3CCCN(C4CC4)C3)CC2)no1 [Example 112, N-(5-tert-butylisoxazol-3-yl)-4-{[(3S)-1-cyclopropylpiperidin-3-yl]methyl}piperazine-1-carboxamide]
< 10 µM	O=C(Nc1ccc(Cl)c(Cl)c1)N1CCN(C[C@@H]2CCCN(C3Cc4ccccc4C3)C2)CC1 [Example 161, N-(3,4-dichlorophenyl)-4-{[(3S)-1-(2,3-dihydro-1H-inden-2-yl)piperidin-3-yl]methyl}piperazine-1-carboxamide]
< 10 µM	O=C(Nc1ccc(Cl)c(Cl)c1)N1CCN(C[C@@H]2CCCN(CCC3CCOCC3)C2)CC1 [Example 203, N-(3,4-Dichlorophenyl)-4-({(3R)-1-[2-(tetrahydro-2H-pyran-4-yl)ethyl]piperidin-3-yl}methyl)piperazine-1-carboxamide]
< 10 µM	O=C(Nc1ccc(Cl)c(Cl)c1)N1CCN(C[C@H]2CCN([C@H]3CC[C@H](O)CC3)C2)CC1 [Example 232, N-(3,4-dichlorophenyl)-4-{[(3R)-1-(trans-4-hydroxycyclohexyl)pyrrolidin-3-yl]methyl}piperazine-1-carboxamide]
< 10 µM	O=C(Nc1ccc(Cl)c(Cl)c1)N1CCN(CC2CCCN(CC(O)c3cccc[n+]3[O-])C2)CC1 (stereo in doubt) [Example 267, N-(3,4-dichlorophenyl)-4-({(3R)-1-[2-hydroxy-2-(1-oxidopyridin-2-yl)ethyl]piperidin-3-yl}methyl)piperazine-1-carboxamide]
< 10 µM	O=C(Nc1ccccc1)N1CCN(C[C@@H]2CCCN(CCc3ccc(Cl)cc3)C2)CC1 [Example 249, 4-[[(3R)-1-[2-(4-chlorophenyl)ethyl]-3-piperidyl]methyl]-N-phenyl-piperazine-1-carboxamide]
< 10 µM	O=C(Nc1ccc(Cl)cc1)N1CCN(CC2CCCN(C3CC3)C2)CC1 (stereo in doubt) [Example 185, N-(4-chlorophenyl)-4-{[(3R)-1-(2-cyclopropyl)piperidin-3-yl]methyl}piperazine-1-carboxamide]
< 10 µM	O=C(Nc1ccc(Cl)c(Cl)c1)N1CCN(C[C@@H]2CCCN(C3CCC(O)CC3)C2)CC1 (stereo partly drawn) [Example 145, N-(3,4-dichlorophenyl)-4-{[(3S)-1-(4-hydroxycyclohexyl)piperidin-3-yl]methyl}piperazine-1-carboxamide]
< 10 µM	O=C(Nc1ccc(F)c(Cl)c1)N1CCN(C[C@@H]2CCCN(C3CC3)C2)CC1 [Example 107, N-(3-chloro-4-fluorophenyl)-4-{[(3S)-1-cyclopropylpiperidin-3-yl]methyl}piperazine-1-carboxamide]
< 10 µM	Cc1nn(C)cc1CN1CCC[C@@H](CN2CCN(C(=O)Nc3ccc(Cl)c(Cl)c3)CC2)C1 [Example 197, N-(3,4-Dichlorophenyl)-4-({(3R)-1-[(1,3-dimethyl-1H-pyrazol-4-yl)methyl]piperidin-3-yl}methyl)piperazine-1-carboxamide]
< 10 µM	Cc1ccc(NC(=O)N2CCN(CC3CCCN(C)C3)CC2)cc1Cl (centres unmarked) [Example 26, N-(3-chloro-4-methylphenyl)-4-[(1-methylpiperidin-3-yl)methyl]piperazine-1-carboxamide]
< 10 µM	CS(=O)(=O)N1CCC(N2CCC[C@@H](CN3CCN(C(=O)Nc4ccc(Cl)c(Cl)c4)CC3)C2)CC1 [Example 176, N-(3,4-Dichlorophenyl)-4-{[(3S)-1′-(methylsulfonyl)-1,4′-bipiperidin-3-yl]methyl}piperazine-1-carboxamide]
< 10 µM	O=C(Nc1ccc(Cl)c(Cl)c1)N1CCN(C[C@H]2CN(C3CCC3)CCO2)CC1 [Example 115, 4-{[(2S)-4-cyclobutylmorpholin-2-yl]methyl}-N-(3,4-dichlorophenyl)piperazine-1-carboxamide]
